Target: Factor IXa (Homo sapiens, UniProt P00740)
Assay: Determination of inhibitory activity against Factor IXa (cleavage of fluorescent peptide substrate)
Assay type: biochemical
Conditions: cleavage of fluorescent peptide CH3SO2-D-CHG-Gly-Arg-AFC, release of AFC; read-out: FIXa IC50
From the text: • (R)—N-(3-aminobenzo[d]isoxazol-6-yl)-2-hydroxy-2-((R)-4-(1-(6-methoxypyridazin-4-yl)-1H-pyrazol-3-yl)-6,6-dimethyl-3-oxomorpholin-2-yl)acetamide. Determination of Inhibitory Activity Against Factor IXa
Formation of a clot to stem bleeding at a site of blood vessel injury involves the coordinated activity of a group of plasma proteins that initiate and propagate fibrin formation and subsequently protect fibrin from premature degradation. Factor IX is a key component of the plasma system that forms a fibrin clot at a site of vascular injury. The activity of Factor IXa is measured by monitoring the cleavage of the fluorescent peptide, CH3SO2-D-CHG-Gly-Arg-AFC.AcOH (“CHG” is cyclohexyl-glycine and “AFC” is trifluoro aminomethyl coumarin). Factor IXa cleaves the amide bond between Arg and AFC, thereby releasing the AFC fluorophore. The free AFC can be detected with a fluorescence detector at an excitation wavelength of 405 nm and emission wavelength of 510 nm.

Sequence of Factor IXa (P00740 227-461 limits assumed): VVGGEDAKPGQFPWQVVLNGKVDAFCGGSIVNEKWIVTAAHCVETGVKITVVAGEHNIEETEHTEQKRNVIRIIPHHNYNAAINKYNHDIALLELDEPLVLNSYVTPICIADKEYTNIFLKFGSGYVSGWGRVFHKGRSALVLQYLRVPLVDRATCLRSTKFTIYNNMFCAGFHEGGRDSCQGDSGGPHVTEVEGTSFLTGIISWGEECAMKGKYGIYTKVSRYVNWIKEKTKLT
Sequence of Factor IXa (P00740 47-191 partner limits assumed): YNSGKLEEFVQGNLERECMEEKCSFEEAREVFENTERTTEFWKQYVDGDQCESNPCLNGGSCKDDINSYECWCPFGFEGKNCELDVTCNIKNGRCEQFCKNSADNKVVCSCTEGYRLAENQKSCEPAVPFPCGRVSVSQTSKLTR

SMILES | IC50 [nM]
Cc1cc(N2CCO[C@H]([C@@](C)(O)C(=O)Nc3ccc4c(N)noc4c3)C2=O)nn1-c1cnnc(C#N)c1 [Example 3] | 68.4
CCOc1cc(-n2ccc(N3CCO[C@H]([C@@](C)(O)C(=O)Nc4ccc5c(N)noc5c4)C3=O)n2)cnn1 [Example 4] | 23.2
C[C@](O)(C(=O)Nc1ccc2c(N)noc2c1)[C@H]1OCCN(c2ccn(-c3cnnc(C(N)=O)c3)n2)C1=O [Example 5, 5-(3-((R)-2-((R)-1-((3-Aminobenzo[d]isoxazol-6-yl)amino)-2-hydroxy-1-oxopropan-2-yl)-3-oxomorpholino)-1H-pyrazol-1-yl)pyridazine-3-carboxamide] | 20.2
C[C@](O)(C(=O)Nc1ccc2c(N)noc2c1)[C@H]1OCCN(c2ccn(-c3cnnc(OC(CO)CCl)c3)n2)C1=O (stereo partly drawn) [Example 6, (2R)—N-(3-Aminobenzo[d]isoxazol-6-yl)-2-((2R)-4-(1-(6-((1-chloro-3-hydroxypropan-2-yl)oxy)pyridazin-4-yl)-1H-pyrazol-3-yl)-3-oxomorpholin-2-yl)-2-hydroxypropanamide] | 975
C[C@](O)(C(=O)Nc1ccc2c(N)noc2c1)[C@H]1OCCN(c2ccn(-c3ccc(=O)n(C(F)F)c3)n2)C1=O [Example 7, (R)—N-(3-Aminobenzo[d]isoxazol-6-yl)-2-((R)-4-(1-(1-(difluoromethyl)-6-oxo-1,6-dihydropyridin-3-yl)-1H-pyrazol-3-yl)-3-oxomorpholin-2-yl)-2-hydroxypropanamide] | 18.1
C[C@](O)(C(=O)Nc1ccc2c(N)noc2c1)[C@H]1OCCN(c2ccn(-c3ccc(F)cc3)n2)C1=O [Example 13, (R)—N-(3-aminobenzo[d]isoxazol-6-yl)-2-((R)-4-(1-(4-fluorophenyl)-1H-pyrazol-3-yl)-3-oxomorpholin-2-yl)-2-hydroxypropanamide] | 678
C[C@](O)(C(=O)Nc1ccc2c(N)noc2c1)[C@H]1OCCN(c2ccn(-c3ccc(S(C)(=O)=O)cc3)n2)C1=O [Example 14, (R)—N-(3-aminobenzo[d]isoxazol-6-yl)-2-hydroxy-2-((R)-4-(1-(4-(methylsulfonyl)phenyl)-1H-pyrazol-3-yl)-3-oxomorpholin-2-yl)propanamide] | 13.2
C[C@](O)(C(=O)Nc1ccc2c(N)noc2c1)[C@H]1OCCN(c2ccn(-c3ccc(C(=O)O)cc3)n2)C1=O [Example 15, 4-(3-((R)-2-((R)-1-((3-aminobenzo[d]isoxazol-6-yl)amino)-2-hydroxy-1-oxopropan-2-yl)-3-oxomorpholino)-1H-pyrazol-1-yl)benzoic acid] | 289
C[C@](O)(C(=O)Nc1ccc2c(N)noc2c1)[C@H]1OCCN(c2ccn(-c3ccc(C#N)c(Cl)c3)n2)C1=O [Example 16, (R)—N-(3-aminobenzo[d]isoxazol-6-yl)-2-((R)-4-(1-(3-chloro-4-cyanophenyl)-1H-pyrazol-3-yl)-3-oxomorpholin-2-yl)-2-hydroxypropanamide] | 137
C[C@](O)(C(=O)Nc1ccc2c(N)noc2c1)[C@H]1OCCN(c2nn(-c3ccc(F)cc3)cc2F)C1=O [Example 17, (R)—N-(3-aminobenzo[d]isoxazol-6-yl)-2-((R)-4-(4-fluoro-1-(4-fluorophenyl)-1H-pyrazol-3-yl)-3-oxomorpholin-2-yl)-2-hydroxypropanamide] | 548
C[C@](O)(C(=O)Nc1ccc2c(N)noc2c1)[C@H]1OCCN(c2ccn(-c3ccnc(C#N)c3)n2)C1=O [Example 21, (R)—N-(3-aminobenzo[d]isoxazol-6-yl)-2-((R)-4-(1-(2-cyanopyridin-4-yl)-1H-pyrazol-3-yl)-3-oxomorpholin-2-yl)-2-hydroxypropanamide] | 16
C[C@](O)(C(=O)Nc1ccc2c(N)noc2c1)[C@H]1OCCN(c2ccn(-c3ccnc(C(F)(F)F)c3)n2)C1=O [Example 22, (R)—N-(3-aminobenzo[d]isoxazol-6-yl)-2-hydroxy-2-((R)-3-oxo-4-(1-(2-(trifluoromethyl)pyridin-4-yl)-1H-pyrazol-3-yl)morpholin-2-yl)propanamide] | 36.9
CN(C)c1cc(-n2ccc(N3CCO[C@H]([C@@](C)(O)C(=O)Nc4ccc5c(N)noc5c4)C3=O)n2)ccn1 [Example 25, (R)—N-(3-aminobenzo[d]isoxazol-6-yl)-2-((R)-4-(1-(2-(dimethylamino)pyridin-4-yl)-1H-pyrazol-3-yl)-3-oxomorpholin-2-yl)-2-hydroxypropanamide] | 95.4
COc1cc(-n2ccc(N3CCO[C@H]([C@@](C)(O)C(=O)Nc4ccc5c(N)noc5c4)C3=O)n2)c(Br)cn1 [Example 26, (R)—N-(3-aminobenzo[d]isoxazol-6-yl)-2-((R)-4-(1-(5-bromo-2-methoxypyridin-4-yl)-1H-pyrazol-3-yl)-3-oxomorpholin-2-yl)-2-hydroxypropanamide] | 346
COc1cc(-n2ccc(N3CCO[C@H]([C@@](C)(O)C(=O)Nc4ccc5c(N)noc5c4)C3=O)n2)c(F)cn1 [Example 27, (R)—N-(3-aminobenzo[d]isoxazol-6-yl)-2-((R)-4-(1-(5-fluoro-2-methoxypyridin-4-yl)-1H-pyrazol-3-yl)-3-oxomorpholin-2-yl)-2-hydroxypropanamide] | 148
COc1cc(-n2ccc(N3CCO[C@H]([C@@](C)(O)C(=O)Nc4ccc5c(N)noc5c4)C3=O)n2)c(C(F)(F)F)cn1 [Example 29, (R)—N-(3-aminobenzo[d]isoxazol-6-yl)-2-hydroxy-2-((R)-4-(1-(2-methoxy-5-(trifluoromethyl)pyridin-4-yl)-1H-pyrazol-3-yl)-3-oxomorpholin-2-yl)propanamide] | 106

Now from value to compound:

IC50 [nM] | SMILES
160 | COc1cc(-n2ccc(N3CCO[C@H]([C@@](C)(O)C(=O)Nc4ccc5c(N)noc5c4)C3=O)n2)ccn1 [Example 1, (2R)—N-(3-Amino-1,2-benzoxazol-6-yl)-2-hydroxy-2-[(2R)-4-[1-(2-methoxy-4-pyridyl)pyrazol-3-yl]-3-oxo-morpholin-2-yl]propanamide]
71.9 | Cc1cc(-n2ccc(N3CCO[C@H]([C@@](C)(O)C(=O)Nc4ccc5c(N)noc5c4)C3=O)n2)ccn1 [Example 19, (R)—N-(3-aminobenzo[d]isoxazol-6-yl)-2-hydroxy-2-((R)-4-(1-(2-methylpyridin-4-yl)-1H-pyrazol-3-yl)-3-oxomorpholin-2-yl)propanamide]
113 | CCOc1cc(-n2ccc(N3CCO[C@H]([C@@](C)(O)C(=O)Nc4ccc5c(N)noc5c4)C3=O)n2)ccn1 [Example 23, (R)—N-(3-aminobenzo[d]isoxazol-6-yl)-2-((R)-4-(1-(2-ethoxypyridin-4-yl)-1H-pyrazol-3-yl)-3-oxomorpholin-2-yl)-2-hydroxypropanamide]
387 | CC(C)Oc1cc(-n2ccc(N3CCO[C@H]([C@@](C)(O)C(=O)Nc4ccc5c(N)noc5c4)C3=O)n2)ccn1 [Example 24, (R)—N-(3-aminobenzo[d]isoxazol-6-yl)-2-hydroxy-2-((R)-4-(1-(2-isopropoxypyridin-4-yl)-1H-pyrazol-3-yl)-3-oxomorpholin-2-yl)propanamide]
445 | COc1cc(-n2ccc(N3CCO[C@H]([C@@](C)(O)C(=O)Nc4ccc5c(N)noc5c4)C3=O)n2)c(Cl)cn1 [Example 28, (R)—N-(3-aminobenzo[d]isoxazol-6-yl)-2-((R)-4-(1-(5-chloro-2-methoxypyridin-4-yl)-1H-pyrazol-3-yl)-3-oxomorpholin-2-yl)-2-hydroxypropanamide]
36.2 | C[C@](O)(C(=O)Nc1ccc2c(N)noc2c1)[C@H]1OCCN(c2nn(-c3ccnc(C(F)(F)F)c3)cc2F)C1=O [Example 30, (R)—N-(3-aminobenzo[d]isoxazol-6-yl)-2-((R)-4-(4-fluoro-1-(2-(trifluoromethyl)pyridin-4-yl)-1H-pyrazol-3-yl)-3-oxomorpholin-2-yl)-2-hydroxypropanamide]
31 | C[C@](O)(C(=O)Nc1ccc2c(N)noc2c1)[C@H]1OCCN(c2nn(-c3ccnc(C#N)c3)cc2F)C1=O [Example 31, (R)—N-(3-aminobenzo[d]isoxazol-6-yl)-2-((R)-4-(1-(2-cyanopyridin-4-yl)-4-fluoro-1H-pyrazol-3-yl)-3-oxomorpholin-2-yl)-2-hydroxypropanamide]
817 | COc1cc(-n2cc(Cl)c(N3CCO[C@H]([C@@](C)(O)C(=O)Nc4ccc5c(N)noc5c4)C3=O)n2)ccn1 [Example 33, (R)—N-(3-aminobenzo[d]isoxazol-6-yl)-2-((R)-4-(4-chloro-1-(2-methoxypyridin-4-yl)-1H-pyrazol-3-yl)-3-oxomorpholin-2-yl)-2-hydroxypropanamide]
570 | C[C@](O)(C(=O)Nc1ccc2c(N)noc2c1)[C@H]1OCCN(c2nn(-c3ccnc(C#N)c3)cc2Cl)C1=O [Example 34, (R)—N-(3-aminobenzo[d]isoxazol-6-yl)-2-((R)-4-(4-chloro-1-(2-cyanopyridin-4-yl)-1H-pyrazol-3-yl)-3-oxomorpholin-2-yl)-2-hydroxypropanamide]
694 | COc1cc(-n2cc(C)c(N3CCO[C@H]([C@@](C)(O)C(=O)Nc4ccc5c(N)noc5c4)C3=O)n2)ccn1 [Example 35, (R)—N-(3-aminobenzo[d]isoxazol-6-yl)-2-hydroxy-2-((R)-4-(1-(2-methoxypyridin-4-yl)-4-methyl-1H-pyrazol-3-yl)-3-oxomorpholin-2-yl)propanamide]
96.3 | COc1cc(-n2nc(N3CCO[C@H]([C@@](C)(O)C(=O)Nc4ccc5c(N)noc5c4)C3=O)cc2C)ccn1 [Example 36, (R)—N-(3-aminobenzo[d]isoxazol-6-yl)-2-hydroxy-2-((R)-4-(1-(2-methoxypyridin-4-yl)-5-methyl-1H-pyrazol-3-yl)-3-oxomorpholin-2-yl)propanamide]
